The supplement of paper PMC10883282
± gives the standard deviation of the averaged measurements.

Assays:
Experiment in all cases: relative viability vs DMSO control (72 h) (fraction); higher = more viable cells
HS729 = test system: HS729
In short: (§1)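 Densities for seeding sarcoma cell lines into 384-well plates were set to give 80–90% confluence. After 24 h, 2.5 µl of serially diluted compound from source plates of 10 mM to 0.0002 mM went in, and plates stayed 72 h at 37 °C in 5% CO2 with 0.1% DMSO vehicle and a 5 µM positive control. Percent growth from ATPLite readings, averaged over up to triplicate wells, served as relative viability, rescaled so 1 means full and 0 means none.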

SK-ES-1 = test system: SK-ES-1
In short: as §1

A204 = test system: A204
In short: as §1

SYO-1 = test system: SYO-1
In short: as §1

RD = test system: RD
In short: as §1

KHOS-NP = test system: KHOS-NP
In short: as §1

SW684 = test system: SW684
In short: as §1

G401 = test system: G401
In short: as §1

VA-ES-BJ = test system: VA-ES-BJ
In short: as §1

SW872 = test system: SW872
In short: as §1

MES-SA = test system: MES-SA
In short: as §1

SK-LMS-1 = test system: SK-LMS-1
In short: as §1

N#CC1(c2ccc(NC(=O)c3cccnc3NCc3ccncc3)cc2)CCCC1 [Apatinib]
relative viability (HS729; 0.00017 µM): 1.06 ± 0.024 | relative viability (HS729; 0.00051 µM): 1.0262 ± 0.00061 | relative viability (HS729; 0.00152 µM): 1.066 ± 0.0066 | relative viability (HS729; 0.00457 µM): 1.04 ± 0.019 | relative viability (HS729; 0.01372 µM): 0.997 ± 0.051 | relative viability (HS729; 0.04115 µM): 1.03 ± 0.028 | relative viability (HS729; 0.1235 µM): 1.04 ± 0.028 | relative viability (HS729; 0.3704 µM): 0.963 ± 0.043 | relative viability (HS729; 1.111 µM): 0.906 ± 0.042 | relative viability (HS729; 3.333 µM): 0.865 ± 0.033 | relative viability (HS729; 10 µM): 0.745 ± 0.013 | relative viability (SK-ES-1; 0.00017 µM): 0.968 ± 0.017 | relative viability (SK-ES-1; 0.00051 µM): 0.986 ± 0.047 | relative viability (SK-ES-1; 0.00152 µM): 0.95 ± 0.029 | relative viability (SK-ES-1; 0.00457 µM): 0.964 ± 0.04 | relative viability (SK-ES-1; 0.01372 µM): 1 ± 0.038 | relative viability (SK-ES-1; 0.04115 µM): 0.991 ± 0.031 | relative viability (SK-ES-1; 0.1235 µM): 0.999 ± 0.014 | relative viability (SK-ES-1; 0.3704 µM): 1.01 ± 0.019 | relative viability (SK-ES-1; 1.111 µM): 0.978 ± 0.014 | relative viability (SK-ES-1; 3.333 µM): 0.936 ± 0.05 | relative viability (SK-ES-1; 10 µM): 0.845 ± 0.023 | relative viability (A204; 0.00017 µM): 1.03 ± 0.054 | relative viability (A204; 0.00051 µM): 1.03 ± 0.025 | relative viability (A204; 0.00152 µM): 1.05 ± 0.039 | relative viability (A204; 0.00457 µM): 1.07 ± 0.021 | relative viability (A204; 0.01372 µM): 1.02 ± 0.016 | relative viability (A204; 0.04115 µM): 1.01 ± 0.036 | relative viability (A204; 0.1235 µM): 0.992 ± 0.019 | relative viability (A204; 0.3704 µM): 0.811 ± 0.069 | relative viability (A204; 1.111 µM): 0.482 ± 0.054 | relative viability (A204; 3.333 µM): 0.362 ± 0.009 | relative viability (A204; 10 µM): 0.342 ± 0.012 | relative viability (SYO-1; 0.00017 µM): 1.01 ± 0.012 | relative viability (SYO-1; 0.00051 µM): 1.03 ± 0.013 | relative viability (SYO-1; 0.00152 µM): 1.01 ± 0.039 | relative viability (SYO-1; 0.00457 µM): 1.02 ± 0.045 | relative viability (SYO-1; 0.01372 µM): 1.01 ± 0.049 | relative viability (SYO-1; 0.04115 µM): 1.02 ± 0.051 | relative viability (SYO-1; 0.1235 µM): 0.957 ± 0.069 | relative viability (SYO-1; 0.3704 µM): 0.91 ± 0.047 | relative viability (SYO-1; 1.111 µM): 0.747 ± 0.036 | relative viability (SYO-1; 3.333 µM): 0.678 ± 0.027 | relative viability (SYO-1; 10 µM): 0.552 ± 0.009 | relative viability (RD; 0.00017 µM): 0.992 ± 0.081 | relative viability (RD; 0.00051 µM): 1.02 ± 0.047 | relative viability (RD; 0.00152 µM): 1.03 ± 0.04 | relative viability (RD; 0.00457 µM): 1.01 ± 0.045 | relative viability (RD; 0.01372 µM): 1.02 ± 0.037 | relative viability (RD; 0.04115 µM): 1.01 ± 0.035 | relative viability (RD; 0.1235 µM): 1.02 ± 0.016 | relative viability (RD; 0.3704 µM): 1.01 ± 0.029 | relative viability (RD; 1.111 µM): 1.05 ± 0.016 | relative viability (RD; 3.333 µM): 1.09 ± 0.02 | relative viability (RD; 10 µM): 1.12 ± 0.02 | relative viability (KHOS-NP; 0.00017 µM): 1.03 ± 0.021 | relative viability (KHOS-NP; 0.00051 µM): 1.04 ± 0.018 | relative viability (KHOS-NP; 0.00152 µM): 1.05 ± 0.015 | relative viability (KHOS-NP; 0.00457 µM): 1.05 ± 0.025 | relative viability (KHOS-NP; 0.01372 µM): 1.06 ± 0.017 | relative viability (KHOS-NP; 0.04115 µM): 1.08 ± 0.012 | relative viability (KHOS-NP; 0.1235 µM): 1.04 ± 0.042 | relative viability (KHOS-NP; 0.3704 µM): 1.027 ± 0.0073 | relative viability (KHOS-NP; 1.111 µM): 1 ± 0.02 | relative viability (KHOS-NP; 3.333 µM): 0.918 ± 0.036 | relative viability (KHOS-NP; 10 µM): 0.726 ± 0.014 | relative viability (SW684; 0.00017 µM): 1.04 ± 0.074 | relative viability (SW684; 0.00051 µM): 1.1 ± 0.075 | relative viability (SW684; 0.00152 µM): 1.06 ± 0.022 | relative viability (SW684; 0.00457 µM): 1.08 ± 0.038 | relative viability (SW684; 0.01372 µM): 1.09 ± 0.013 | relative viability (SW684; 0.04115 µM): 1.09 ± 0.049 | relative viability (SW684; 0.1235 µM): 1.1 ± 0.028 | relative viability (SW684; 0.3704 µM): 1.05 ± 0.049 | relative viability (SW684; 1.111 µM): 1.07 ± 0.027 | relative viability (SW684; 3.333 µM): 1.05 ± 0.074 | relative viability (SW684; 10 µM): 1.02 ± 0.062 | relative viability (G401; 0.00017 µM): 1.006 ± 0.0048 | relative viability (G401; 0.00051 µM): 1 ± 0.05 | relative viability (G401; 0.00152 µM): 0.995 ± 0.034 | relative viability (G401; 0.00457 µM): 0.979 ± 0.013 | relative viability (G401; 0.01372 µM): 1.01 ± 0.038 | relative viability (G401; 0.04115 µM): 0.995 ± 0.048 | relative viability (G401; 0.1235 µM): 0.955 ± 0.026 | relative viability (G401; 0.3704 µM): 0.927 ± 0.034 | relative viability (G401; 1.111 µM): 0.901 ± 0.037 | relative viability (G401; 3.333 µM): 0.895 ± 0.033 | relative viability (G401; 10 µM): 0.7567 ± 0.0054 | relative viability (VA-ES-BJ; 0.00017 µM): 1.04 ± 0.022 | relative viability (VA-ES-BJ; 0.00051 µM): 1.08 ± 0.053 | relative viability (VA-ES-BJ; 0.00152 µM): 1.05 ± 0.022 | relative viability (VA-ES-BJ; 0.00457 µM): 1.08 ± 0.02 | relative viability (VA-ES-BJ; 0.01372 µM): 1.06 ± 0.037 | relative viability (VA-ES-BJ; 0.04115 µM): 1.07 ± 0.041 | relative viability (VA-ES-BJ; 0.1235 µM): 1.067 ± 0.0077 | relative viability (VA-ES-BJ; 0.3704 µM): 1.07 ± 0.03 | relative viability (VA-ES-BJ; 1.111 µM): 1.11 ± 0.053 | relative viability (VA-ES-BJ; 3.333 µM): 1.14 ± 0.06 | relative viability (VA-ES-BJ; 10 µM): 1.17 ± 0.064 | relative viability (SW872; 0.00017 µM): 1.06 ± 0.047 | relative viability (SW872; 0.00051 µM): 1.07 ± 0.032 | relative viability (SW872; 0.00152 µM): 1.05 ± 0.015 | relative viability (SW872; 0.00457 µM): 1.05 ± 0.028 | relative viability (SW872; 0.01372 µM): 1.08 ± 0.061 | relative viability (SW872; 0.04115 µM): 1.08 ± 0.011 | relative viability (SW872; 0.1235 µM): 1.05 ± 0.052 | relative viability (SW872; 0.3704 µM): 1.02 ± 0.042 | relative viability (SW872; 1.111 µM): 1.02 ± 0.048 | relative viability (SW872; 3.333 µM): 1.03 ± 0.08 | relative viability (SW872; 10 µM): 0.972 ± 0.015 | relative viability (MES-SA; 0.00017 µM): 0.978 ± 0.04 | relative viability (MES-SA; 0.00051 µM): 0.958 ± 0.027 | relative viability (MES-SA; 0.00152 µM): 0.946 ± 0.022 | relative viability (MES-SA; 0.00457 µM): 0.9268 ± 0.0057 | relative viability (MES-SA; 0.01372 µM): 0.929 ± 0.025 | relative viability (MES-SA; 0.04115 µM): 0.939 ± 0.041 | relative viability (MES-SA; 0.1235 µM): 0.928 ± 0.03 | relative viability (MES-SA; 0.3704 µM): 0.938 ± 0.023 | relative viability (MES-SA; 1.111 µM): 0.885 ± 0.028 | relative viability (MES-SA; 3.333 µM): 0.875 ± 0.029 | relative viability (MES-SA; 10 µM): 0.773 ± 0.022 | relative viability (SK-LMS-1; 0.00017 µM): 1.06 ± 0.017 | relative viability (SK-LMS-1; 0.00051 µM): 1.06 ± 0.024 | relative viability (SK-LMS-1; 0.00152 µM): 1.07 ± 0.032 | relative viability (SK-LMS-1; 0.00457 µM): 1.05 ± 0.032 | relative viability (SK-LMS-1; 0.01372 µM): 1.07 ± 0.042 | relative viability (SK-LMS-1; 0.04115 µM): 1.08 ± 0.044 | relative viability (SK-LMS-1; 0.1235 µM): 1.01 ± 0.027 | relative viability (SK-LMS-1; 0.3704 µM): 1.05 ± 0.014 | relative viability (SK-LMS-1; 1.111 µM): 1.02 ± 0.022 | relative viability (SK-LMS-1; 3.333 µM): 1 ± 0.041 | relative viability (SK-LMS-1; 10 µM): 0.833 ± 0.043
